One assay deals with T1, STAT6 protein (Homo sapiens, UniProt P42226).
T1 sequence (P42226 1-847): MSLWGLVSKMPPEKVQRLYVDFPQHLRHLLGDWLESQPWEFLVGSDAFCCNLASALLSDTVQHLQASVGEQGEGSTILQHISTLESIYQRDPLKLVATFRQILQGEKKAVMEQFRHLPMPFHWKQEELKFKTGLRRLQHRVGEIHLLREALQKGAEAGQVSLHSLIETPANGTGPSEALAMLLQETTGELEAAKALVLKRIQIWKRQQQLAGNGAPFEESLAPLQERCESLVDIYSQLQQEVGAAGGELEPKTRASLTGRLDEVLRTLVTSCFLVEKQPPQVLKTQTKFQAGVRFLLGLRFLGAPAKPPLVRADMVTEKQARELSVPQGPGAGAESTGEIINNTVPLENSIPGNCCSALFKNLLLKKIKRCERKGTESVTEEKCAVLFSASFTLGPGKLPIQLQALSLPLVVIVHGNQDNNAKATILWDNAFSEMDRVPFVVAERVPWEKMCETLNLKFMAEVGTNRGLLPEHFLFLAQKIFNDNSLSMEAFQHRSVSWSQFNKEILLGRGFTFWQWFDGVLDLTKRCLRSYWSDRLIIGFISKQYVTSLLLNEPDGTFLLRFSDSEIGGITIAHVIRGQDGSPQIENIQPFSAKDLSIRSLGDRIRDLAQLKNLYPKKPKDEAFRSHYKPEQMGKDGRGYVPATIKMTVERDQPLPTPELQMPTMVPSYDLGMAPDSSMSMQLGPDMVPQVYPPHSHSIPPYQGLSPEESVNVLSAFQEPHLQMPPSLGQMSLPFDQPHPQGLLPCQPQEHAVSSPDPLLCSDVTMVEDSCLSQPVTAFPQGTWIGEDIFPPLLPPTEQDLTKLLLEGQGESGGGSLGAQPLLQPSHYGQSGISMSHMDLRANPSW
Put plainly: Fluorescence polarization (FP) binding assay, STAT6. Particulars: FP competition, 5 nM fluorescein-labeled tracer, 200 nM protein, PBS pH7.4; read-out: Binding STAT6. Summed up:
(§1)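 Polarization of a 5 nM fluorescein tracer bound by 200 nM STAT protein, measured after 1 h room-temperature equilibration in buffered PBS pH 7.4 with DTT, gave inhibition constants via nonlinear curve fitting.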
(In general: Polarisation of emitted light reports the rotation of a fluorescent probe.)

A further assay has as its target T2, STAT5A (Homo sapiens, UniProt P42229).
T2 sequence (P42229 1-794): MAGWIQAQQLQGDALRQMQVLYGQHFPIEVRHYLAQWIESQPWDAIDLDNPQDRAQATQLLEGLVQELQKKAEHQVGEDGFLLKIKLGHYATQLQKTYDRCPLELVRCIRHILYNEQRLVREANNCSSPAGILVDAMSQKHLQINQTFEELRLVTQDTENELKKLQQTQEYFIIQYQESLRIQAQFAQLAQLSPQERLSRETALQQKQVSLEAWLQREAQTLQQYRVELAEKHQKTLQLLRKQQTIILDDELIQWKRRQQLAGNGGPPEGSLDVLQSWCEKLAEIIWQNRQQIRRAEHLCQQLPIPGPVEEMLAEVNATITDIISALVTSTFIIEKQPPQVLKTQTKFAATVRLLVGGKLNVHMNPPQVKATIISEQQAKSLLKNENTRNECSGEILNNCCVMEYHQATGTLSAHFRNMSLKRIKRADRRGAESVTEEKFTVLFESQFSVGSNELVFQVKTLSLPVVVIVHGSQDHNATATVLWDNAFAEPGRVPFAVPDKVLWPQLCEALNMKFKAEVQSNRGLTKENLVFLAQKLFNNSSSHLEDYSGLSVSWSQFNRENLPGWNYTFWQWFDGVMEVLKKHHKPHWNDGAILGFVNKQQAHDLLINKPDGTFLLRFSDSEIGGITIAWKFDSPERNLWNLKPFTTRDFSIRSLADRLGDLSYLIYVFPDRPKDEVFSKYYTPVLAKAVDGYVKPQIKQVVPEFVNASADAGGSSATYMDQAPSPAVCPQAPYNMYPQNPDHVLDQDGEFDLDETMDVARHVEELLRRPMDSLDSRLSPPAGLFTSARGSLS
Put plainly: Fluorescence polarization (FP) binding assay, STAT5A. Particulars: FP competition, 5 nM fluorescein-labeled tracer, 200 nM protein, PBS pH7.4. Summed up: as §1

SMILES strings stand for the structures. Bounds are passed on as bounds.

As for `CC(=O)N1CC[C@H]2CC[C@@H](C(=O)N3CCC[C@@H](c4ccccc4)C3)N2C(=O)[C@@H](NC(=O)c2cc3cc(C(F)(F)P(=O)(O)O)ccc3s2)C1` [Compound 157, ((2-(((5S,8S,10aR)-3-acetyl-6-oxo-8-((S)-3-phenylpiperidine-1-carbonyl)decahydropyrrolo[1,2-a][1,5]diazocin-5-yl)carbamoyl)benzo[b]thiophen-5-yl)difluoromethyl)phosphonic acid], the Ki at STAT6 protein is 1000 to 10000 nM; on STAT5A, more than 10 µM.
Take `CC(=O)N1CC[C@H]2CC[C@@H](C(=O)N3CCC[C@H](c4ccccc4)C3)N2C(=O)[C@@H](NC(=O)c2cc3cc(C(F)(F)P(=O)(O)O)ccc3s2)C1` [Compound 158, ((2-(((5S,8S,10aR)-3-acetyl-6-oxo-8-((R)-3-phenylpiperidine-1-carbonyl)decahydropyrrolo[1,2-a][1,5]diazocin-5-yl)carbamoyl)benzo[b]thiophen-5-yl)difluoromethyl)phosphonic acid]: the Ki at STAT6 protein was 100 to 1000 nM; on STAT5A it was more than 10 µM.
The corresponding values for `CC(=O)N1CC[C@H]2CC[C@@H](C(=O)N3CCOC(C)(c4ccc(F)cc4)C3)N2C(=O)[C@@H](NC(=O)c2cc3cc(C(F)(F)P(=O)(O)O)ccc3s2)C1` (stereo partly drawn) [Compound 159, ((2-(((5S,8S,10aR)-3-acetyl-8-(2-(4-fluorophenyl)-2-methylmorpholine-4-carbonyl)-6-oxodecahydropyrrolo[1,2-a][1,5]diazocin-5-yl)carbamoyl)benzo[b]thiophen-5-yl)difluoromethyl)phosphonic acid] are 1000 to 10000 nM and more than 10 µM.
Regarding `CC(=O)N1CC[C@H]2CC[C@@H](C(=O)N3CCOC(C)(c4ccc(Cl)cc4)C3)N2C(=O)[C@@H](NC(=O)c2cc3cc(C(F)(F)P(=O)(O)O)ccc3s2)C1` (stereo partly drawn) [Compound 160, ((2-(((5S,8S,10aR)-3-acetyl-8-(2-(4-chlorophenyl)-2-methylmorpholine-4-carbonyl)-6-oxodecahydropyrrolo[1,2-a][1,5]diazocin-5-yl)carbamoyl)benzo[b]thiophen-5-yl)difluoromethyl)phosphonic acid], the Ki on STAT6 protein is 1000 to 10000 nM; on STAT5A it was more than 10 µM.
The corresponding values for `CC(=O)N1CC[C@H]2CC[C@@H](C(=O)N3CCOC(c4ccc(F)cc4)C3)N2C(=O)[C@@H](NC(=O)c2cc3cc(C(F)(F)P(=O)(O)O)ccc3s2)C1` (stereo partly drawn) [Compound 161, ((2-(((5S,8S,10aR)-3-acetyl-8-(2-(4-fluorophenyl)morpholine-4-carbonyl)-6-oxodecahydropyrrolo[1,2-a][1,5]diazocin-5-yl)carbamoyl)benzo[b]thiophen-5-yl)difluoromethyl)phosphonic acid] are 100 to 1000 nM and more than 10 µM.
The corresponding values for `CC(=O)N1CC[C@H]2CC[C@@H](C(=O)N3CCOC(c4cccc(Cl)c4)C3)N2C(=O)[C@@H](NC(=O)c2cc3cc(C(F)(F)P(=O)(O)O)ccc3s2)C1` (stereo partly drawn) [Compound 162, ((2-(((5S,8S,10aR)-3-acetyl-8-(2-(3-chlorophenyl)morpholine-4-carbonyl)-6-oxodecahydropyrrolo[1,2-a][1,5]diazocin-5-yl)carbamoyl)benzo[b]thiophen-5-yl)difluoromethyl)phosphonic acid] are 100 to 1000 nM and more than 10 µM.
The corresponding values for `CC(=O)N1CC[C@H]2CC[C@@H](C(=O)N3CCOC(c4cc(F)c(Cl)cc4Cl)C3)N2C(=O)[C@@H](NC(=O)c2cc3cc(C(F)(F)P(=O)(O)O)ccc3s2)C1` (stereo partly drawn) [Compound 163, ((2-(((5S,8S,10aR)-3-acetyl-8-(2-(2,4-dichloro-5-fluorophenyl)morpholine-4-carbonyl)-6-oxodecahydropyrrolo[1,2-a][1,5]diazocin-5-yl)carbamoyl)benzo[b]thiophen-5-yl)difluoromethyl)phosphonic acid] are 1000 to 10000 nM and more than 10 µM.
On to `CC(=O)N1CC[C@H]2CC[C@@H](C(=O)N3CCOC(c4ccccc4C)C3)N2C(=O)[C@@H](NC(=O)c2cc3cc(C(F)(F)P(=O)(O)O)ccc3s2)C1` (stereo partly drawn) [Compound 164, ((2-(((5S,8S,10aR)-3-acetyl-6-oxo-8-(2-(o-tolyl)morpholine-4-carbonyl)decahydropyrrolo[1,2-a][1,5]diazocin-5-yl)carbamoyl)benzo[b]thiophen-5-yl)difluoromethyl)phosphonic acid], for which the results for the Ki at STAT6 protein and on STAT5A were 1000 to 10000 nM and more than 10 µM, respectively.
The corresponding values for `CC(=O)N1CC[C@H]2CC[C@@H](C(=O)Nc3ncc(-c4ccccc4)s3)N2C(=O)[C@@H](NC(=O)c2cc3cc(C(F)(F)P(=O)(O)O)ccc3s2)C1` [Compound 165, ((2-(((5S,8S,10aR)-3-acetyl-6-oxo-8-((5-phenylthiazol-2-yl)carbamoyl)decahydropyrrolo[1,2-a][1,5]diazocin-5-yl)carbamoyl)benzo[b]thiophen-5-yl)difluoromethyl)phosphonic acid] are 1000 to 10000 nM and 1 to 10 µM.
The corresponding values for `CC(=O)N1CCN(C(=O)[C@@H]2CCCN2C(=O)[C@@H](NC(=O)c2cc3cc(C(F)(F)P(=O)(O)O)ccc3s2)C(C)(C)C)C[C@H]1c1ccccc1` [Compound 166, ((2-(((S)-1-((S)-2-((R)-4-acetyl-3-phenylpiperazine-1-carbonyl)pyrrolidin-1-yl)-3,3-dimethyl-1-oxobutan-2-yl)carbamoyl)benzo[b]thiophen-5-yl)difluoromethyl)phosphonic acid] are 1000 to 10000 nM and more than 10 µM.
The corresponding values for `CC(=O)N1CCN(C(=O)[C@@H]2CCCN2C(=O)[C@@H](NC(=O)c2cc3cc(C(F)(F)P(=O)(O)O)ccc3s2)C(C)(C)C)C[C@@H]1c1ccccc1` [Compound 167, ((2-(((S)-1-((S)-2-((S)-4-acetyl-3-phenylpiperazine-1-carbonyl)pyrrolidin-1-yl)-3,3-dimethyl-1-oxobutan-2-yl)carbamoyl)benzo[b]thiophen-5-yl)difluoromethyl)phosphonic acid] are 1000 to 10000 nM and more than 10 µM.
Take `CC(C)(C)[C@H](NC(=O)c1cc2cc(C(F)(F)P(=O)(O)O)ccc2s1)C(=O)N1CCC[C@H]1C(=O)N1CCN(S(C)(=O)=O)[C@H](c2ccccc2)C1` [Compound 168, ((2-(((S)-3,3-dimethyl-1-((S)-2-((R)-4-(methylsulfonyl)-3-phenylpiperazine-1-carbonyl)pyrrolidin-1-yl)-1-oxobutan-2-yl)carbamoyl)benzo[b]thiophen-5-yl)difluoromethyl)phosphonic acid]: the figures for the Ki at STAT6 protein and at STAT5A were 1000 to 10000 nM and more than 10 µM, respectively.
As to `CC(C)(C)[C@H](NC(=O)c1cc2cc(C(F)(F)P(=O)(O)O)ccc2s1)C(=O)N1CCC[C@H]1C(=O)N1CCN(S(C)(=O)=O)[C@@H](c2ccccc2)C1` [Compound 169, ((2-(((S)-3,3-dimethyl-1-((S)-2-((S)-4-(methylsulfonyl)-3-phenylpiperazine-1-carbonyl)pyrrolidin-1-yl)-1-oxobutan-2-yl)carbamoyl)benzo[b]thiophen-5-yl)difluoromethyl)phosphonic acid], the Ki on STAT6 protein is 1000 to 10000 nM; at STAT5A, more than 10 µM.

(Values after US20230295200A1 (REGENTS OF THE UNIVERSITY OF MICHIGAN, priority 2022, published 2023).)
